From ChEMBL document CHEMBL1139632, “Design and synthesis of new 2-substituted-5-(2-benzylthiophenyl)-1,3,4-oxadiazoles as benzodiazepine receptor agonists” (Bioorg Med Chem Lett, 2005)

Legend:
Mus musculus [1] = species on record: Mus musculus; assay: Lethal dose of in mice; format: functional
Mus musculus [2] = assay: Ability of the compound to protect mice against maximal electric shock (MES) induced convulsion in the presence of 10 mg/kg flumazenil; Range 54.9-102.9; format: functional
Mus musculus [3] = assay: Ability of the compound to protect mice against pentylenetetrazole induced convulsion in the presence of 10 mg/kg flumazenil; Ranges 60.1-135.9; format: functional
[4] = Lethal dose in mice; format: toxicity; conditions: mouse, in vivo

Row | SMILES | LD50 (Mus musculus [1]) | ED50 (Mus musculus [2]) | ED50 (Mus musculus [3]) | LD50 [4]
1 | CSc1nnc(-c2ccccc2SCc2ccccc2)o1 | > 300 mg/kg | > 100 mg/kg | 93.2 mg/kg | –
2 | Sc1nnc(-c2ccccc2SCc2ccccc2)o1 | > 300 mg/kg | > 100 mg/kg | > 100 mg/kg | –
3 | Nc1nnc(-c2ccccc2SCc2ccc(F)cc2)o1 | > 300 mg/kg | > 100 mg/kg | 29.1 mg/kg | –
4 | Nc1nnc(-c2ccccc2SCc2ccccc2)o1 | – | 43.3 mg/kg | 89.2 mg/kg | > 300 mg/kg
5 | CCSc1nnc(-c2ccccc2SCc2ccccc2)o1 | > 300 mg/kg | > 100 mg/kg | > 100 mg/kg | –
6 | Nc1nnc(-c2ccccc2SCc2ccc(Cl)cc2)o1 | > 300 mg/kg | > 100 mg/kg | > 100 mg/kg | –
7 | c1ccc(CSc2nnc(-c3ccccc3SCc3ccccc3)o2)cc1 | > 300 mg/kg | > 100 mg/kg | > 100 mg/kg | –
8 | CN1C(=O)CN=C(c2ccccc2)c2cc(Cl)ccc21 [DIAZEPAM] | – | 1.8 mg/kg | 1.4 mg/kg | –
